Results on one molecule are retold here after paper PMC9822155, “Synthesis and Antiproliferative Activity against Cancer Cells of Indole-Aryl-Amide Derivatives” (Molecules, 2022).

One may read the Ki as the equilibrium dissociation constant of an inhibitor or competing ligand from its target.

SMILES strings stand for the structures.

For one experiment, the system named is HT29 cells. The experiment can be described thus: Cell cycle analysis by flow cytometry (PI staining). In kind it is cell-based, human. The settings on record: HT29, 5 μM, 24 h. The procedure:
HT29 cells were treated with 1 or 5 μM 5 for 24 h and analyzed by flow cytometry after DNA staining. […] In contrast, 5-treated HT29 cells accumulated in the G0/G1 phase in a dose-dependent manner, with a nearly complete synchronization (84% ± 0.9) after 5 μM treatment.
HT29 were plated at density of 20,000 cell/cm^2 in dish and after 24 h treated with 1 or 5 μM of 5 for 24 h. The samples were prepared in according to Calonghi. In brief, untreated and treated cells were detached, washed in PBS and the pellet was finally re-suspended in 0.01% Nonidet P-40 (Sigma-Aldrich, Milano, Italy), 10 μg/mL RNase (Sigma-Aldrich, Milano, Italy), 0.1% sodium citrate (Sigma-Aldrich, Milano, Italy), 50 μg/mL propidium iodide (PI) (Sigma-Aldrich, Milano, Italy), for 30 min at room temperature in the dark. Propidium iodide (PI) fluorescence was acquired on a linear scale and analysed by Modfit software version 5.2 (USA). Flow cytometric assays were performed on a Brite HS flow cytometer (Bio-Rad, Watford, UK) equipped with a Xe/Hg lamp.
In general terms: In flow cytometry, cells or beads pass a laser one at a time.

Experiment [1] relates to acetylated histones in HT29 cells. In words: Histone acetylation, western blot of nuclear lysates. The format is cell-based, human. The settings on record: HT29, 5 μM, 6 h. The procedure:
In order to identify acetylated histones, we analyzed the nuclear cell lysates by western blot using a 10% polyacrylammide gel electrophoresis. […] Differences in the density of the bands are thought to reflect differences in protein acetylation levels. Histone acetylation signals were quantified by densitometry and normalized on histone H1 (Figure 5).
HT29 cells were seeded in dish and after 24 h they were treated for 6 h with compound 5 at final concentration of 5 µM. Cells were harvested, washed with 10 mM sodium butyrate in PBS, and nuclei were isolated in according to Amellem and Micheletti. The nuclear pellet was suspended in 0.1 mL ice-cold H2O using a Vortex mixer, and concentrated H2SO4 was added to the suspension to give a final concentration of 0.4 N. After incubation at 4 °C for 1 h, the suspension was centrifuged for 5 min at 14,000× g, and the supernatant was taken and mixed with 1 mL of acetone. After overnight incubation, the coagulate material was collected by microcentrifugation and air-dried. […] Proteins were quantified using a protein assay kit (Bio-Rad, Hercules, CA, USA). Histones were detected resolving samples on a 10% gel in MES buffer at 200 V for 40 min. […] After five washes with PBS-TWEEN 20 0.1%, antibody binding was detected by Amersham ECL Plus Western Blotting Detection System (GE Healthcare, Milan, Italy).
In general terms: In western blotting, separated proteins are transferred to a membrane and probed.

In another experiment the target is T1, δ-OR (Homo sapiens, UniProt P41143).
T1 construct: purchased PerkinElmer (Krakow, Poland); host or cells: CHO cells (membranes)
T1 sequence (P41143 whole entry): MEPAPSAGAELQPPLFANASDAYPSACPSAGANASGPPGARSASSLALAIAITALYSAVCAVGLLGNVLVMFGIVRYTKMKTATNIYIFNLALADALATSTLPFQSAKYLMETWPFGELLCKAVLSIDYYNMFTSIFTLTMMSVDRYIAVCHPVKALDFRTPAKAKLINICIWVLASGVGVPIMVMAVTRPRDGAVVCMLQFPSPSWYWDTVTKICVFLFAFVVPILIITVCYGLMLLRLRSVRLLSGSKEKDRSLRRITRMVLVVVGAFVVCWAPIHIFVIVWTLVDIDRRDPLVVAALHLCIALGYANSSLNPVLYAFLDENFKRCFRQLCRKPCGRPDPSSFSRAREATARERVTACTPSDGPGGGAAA
In words: Radioligand binding assay, δ-OR ([3H]deltorphin-2 displacement). Conditions: [3H]deltorphin-2, membranes of CHO cells with human recombinant OR; ± SEM (n ≥ 3). Here is the method: In order to evaluate the affinity of the compounds for μ-, δ-, κ-ORs, radioligand binding assays were performed. Displacement of radioligands, [^3H]DAMGO (μ-OR selective), [^3H]deltorphin-2 (δ-OR selective), and [^3H]U-69593 (κ-OR selective) by the synthetic analogs was investigated in the commercial membranes of CHO cells transfected with human recombinant ORs. […] Due to the modest receptor affinities, the functional activity of the compounds was not investigated.
Opioid radioligands, [^3H]DAMGO, [^3H]deltorphin-2 and [^3H]U-69593, and human recombinant opioid receptors came from PerkinElmer (Krakow, Poland). GF/B glass fiber strips were purchased from Whatman (Brentford, UK).
To determine the affinity of peptide analogs at the respective receptors, competition binding experiments were performed. Commercial membranes of CHO cells stably expressing human opioid receptors and the competing radioligands, [^3H]DAMGO, [^3H]deltorphin-2, and [^3H]U-69593 for μ-OR, δ-OR, and κ-OR, respectively, were used. Membranes were incubated in 0.5 mL volume of 50 mM Tris/HCl (pH = 7.4), 0.5% bovine serum albumin (BSA), with a number of peptidase inhibitors (bacitracin, bestatin, captopril) and various concentrations of radioligands for 2 h at 25 °C. Non-specific binding was assessed in the presence of […]. Three independent experiments for each assay were carried out in duplicate. The data were analyzed by a nonlinear least square regression analysis computer program Graph Pad PRISM 6.0 (Graph Pad Software Inc., San Diego, CA, USA). The IC50 values were determined from the logarithmic concentration-displacement curves, and the values of the inhibitory constants (Ki) were calculated according to the equation of Cheng and Prusoff.

Consider `Nc1ccc(CN(Cc2ccc(O)cc2)C(=O)Cc2c[nH]c3ccccc23)cc1` [Compound 5], for which the “Cells in G0/G1 phase” value in the experiment with HT29 cells is 84% ± 0.9. Moreover, in experiment [1], the “Histone H2/H3 acetylation” value is “did not modify the state of acetylation of H2/H3” and the “Histone H4 acetylation” value is given as “induced H4 hyperacetylation”. Moreover, at δ-OR, the inhibition constant (Ki) worked out at 10.8 ± 1.3 µM.
